The pKa is the negative logarithm of the acid dissociation constant.

From US12263248B2, “Compounds and compositions for intracellular delivery of therapeutic agents” (ModernaTX, Inc., priority 2018, dated 2025) come the findings set out here.

One data set concerns sC5b-9. The data set can be described thus: Complement activation in vitro (sC5b-9 levels). It is filed as cell-based. The settings on record: human cells contacted in vitro. As for the experimental part:
Complement activation assists in the clearance of pathogens from an organism. As it is undesirable that a subject's body recognize a nanoparticle composition as a foreign invader, low complement system activation upon administration of such a composition is preferred. The complex sC5b-9 is a marker for the activation of the complement system. Thus, human cells were contacted in vitro with nanoparticle compositions according to Table 1A and were evaluated for sC5b-9 levels.

Data set [1] is described as follows: Encapsulation efficiency of RNA (QUANT-IT RIBOGREEN RNA assay). The format is physicochemical. The settings on record: for EE (%): Table 1A. Put shortly:
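RiboGreen fluorescence (ex ~480, em ~520 nm) compared between intact samples and Triton X-100-lysed samples after 15 min at 37 °C in TE buffer, pH 7.5. Percent free RNA is the blank-corrected intact/disrupted ratio.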

The nature of data set [2]: Particle size and polydispersity index of nanoparticle compositions (Zetasizer Nano ZS). Particulars: for Size (nm): lipid:DSPC:cholesterol:PEG-DMG 50:10:38.5:1.5 mol %. The format is physicochemical. Put shortly: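 In 1×PBS, the compositions were sized on a Zetasizer Nano ZS, which also reported their polydispersity index.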
Data set [3] relates to luciferase (Luc) mRNA. In words: Luc expression in liver, lung, spleen and femur 6 hours after intravenous administration. The format is in vivo. Particulars: mice, 0.5 mpk; for Total Flux Femur / Total Flux Liver / Total Flux Lung / Total Flux Spleen: intravenous. An outline of the steps:
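LNP-formulated mRNA given IV to mice (n=3) at 0.5 mpk; at 6 h, bioluminescence imaged ex vivo 15 min after IP D-luciferin (15 mg/mL, 200 μL), organs imaged within 25 min. Values are total flux by region of interest.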

In data set [4] the test system is luciferase (Luc) mRNA. The data set can be described thus: Luc expression, whole body bioluminescence after intravenous administration to mice. It is filed as in vivo. Particulars: mice, i.v., 0.5 mg/kg; for Total Flux 3 hours / Total Flux 6 hours / Total Flux 24 hours: Luc mRNA; for flux at all timepoints measured: 3, 6 and 24 hour, in words. Put shortly:
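Luc mRNA nanoparticle formulations given intravenously to mice (n=6) at 0.5 mg/kg; whole-body bioluminescence imaged at 3, 6 and 24 h. CD-1 mice received IP D-luciferin (200 μL of 15 mg/mL) 15 min before imaging; total flux quantified by region of interest.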

Another data set deals with IL-6, IP-10. In words: Cytokine induction in mice upon intravenous administration. Particulars: 0.5 mpk, 6 hours; for Cytokine induction IL-6 / Cytokine induction IP-10: intravenous. The format is in vivo. Details: Cytokine induction IL-6 / Cytokine induction IP-10: unit not given here. Put shortly: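 Mice dosed intravenously with nanoparticle compositions at 0.5 mpk; serum cytokine concentrations (IL-6, IP-10) measured at 6 hours. MC3 formulation and PBS controls run alongside.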

Data set [5] can be described thus: Apparent (surface) pKa of the LNP formulation (TNS assay). Particulars: Table 1A. It is filed as physicochemical. An outline of the steps: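 LNP (0.04 mg/mL mRNA) mixed with TNS reagent in 21 buffers spanning about pH 3-12, in triplicate; fluorescence plotted against pH as sigmoidal curve. Apparent pKa taken as […] curve inflection point; validated in 1× PBS and 20 mM Tris w/8% sucrose.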

For another data set, the system named is hEPO mRNA. In words: Pretreatment study in Cynomolgus monkeys (standard MC3 formulation, hEPO mRNA). The format is in vivo. The settings on record: MC3 formulation once weekly for four weeks. As for the experimental part: The effects of pretreatment to non-human primates were evaluated using a standard MC3 formulation including an mRNA encoding hEPO. Male monkeys were administered the nanoparticle composition once weekly for four weeks at a dose rate of 5 ml/kg/h and were pretreated with either methotrexate or dexamethasone.
As shown, in the absence of any pretreatment, maximal expression levels decreased nearly 70% over the course of the study.

Another data set concerns human hepatocytes. In words: Metabolite profiling of Compound 18 with human hepatocytes. It is filed as in vitro ADME. More on the design: key to Detection in incubation: +: Detected; ND: Not detected. The settings on record: for Detection in incubation: Compound 18 (10 μM), human hepatocytes. The method, then:
The results of metabolic profiling and characterization for compound 18 incubated with human hepatocytes or human plasma are summarized in Tables 41 and 42, respectively.

Data set [6] can be described thus: Lipid clearance from mouse tissues after weekly dosing. It is filed as in vivo. The settings on record: 0.25 mg/kg mRNA on days 1, 8, and 15. As for the experimental part:
Repeat dosing of mRNA in an MC3-based LNP for a therapeutic indication would be expected to lead to accumulation of MC3 in tissues, based on the measured half-life. Therefore it was investigated whether the favorable single dose pharmacokinetics of compound 18 were maintained with weekly dosing. Clearance of MC3 and compound 18 from multiple mouse tissues was measured after dosing 0.05 mg/kg mRNA on day 1, 8 and 15 (FIG. 30A). Following dosing with MC3 LNPs, lipid was detected in liver, spleen, plasma, kidney, heart and lung, with liver and spleen containing the largest concentrations (FIG. 30A, for full panel of tissues see FIG. 35A). […] Compound 18 was also detected in plasma, lung, and kidney, but not in heart (FIG. 35A).
In vitro metabolite identification studies using compound 18 were also performed. […] The disappearance of parent compound 18 and the primary metabolite, compound 166, from mouse liver tissue was measured after dosing 0.25 mg/kg mRNA on days 1, 8, and 15.

A short description of data set [7]: Metabolite identification of Compound 18 in human plasma. It is filed as in vitro ADME. Details: key to Detection in incubation: +: Detected; ND: Not detected. The settings on record: for Detection in incubation: Compound 18 (10 μM), human plasma. As for the experimental part:
Metabolite Identification: Compound 18 (10 μM) was incubated with human plasma (29.0 mg protein/incubation) in incubation mixtures (200 μL final incubation volume) that consisted of 50/50v/v neat plasma (undiluted)/substrate solution in 50 mM phosphate buffer, pH 7.4). The plasma was obtained from male and female donors and contained K2EDTA anticoagulant. Reactions were started by addition of the substrate solution to human plasma and were stopped at four designated time points (0, 30, 60 and 90 min) by the addition of 600 μL of stop reagent (acetonitrile). Stopped incubation samples were centrifuged (e.g., 10,000×g for 10 min at 10° C.) and the supernatant fractions were analyzed by LC-MS/MS to characterize the metabolites formed from compound 18. Additional incubations were performed with the positive control procaine (5 μM) to establish competency of the test system. Samples were analyzed by LC-MS/MS.

The conditions of data set [8]: N/P 3, i.v. bolus at 5 mpk, Sprague Dawley rats; 5 mg/kg.
Procedure: Sprague Dawley rats were administered with nanoparticles of the disclosure via i.v. bolus at 5 mpk. The nanoparticle contained two mRNA encoding a broadly neutralizing influenza antibody in a 2:1 ratio.

Regarding `CCCCCC/C=C\COC(=O)CCCCCCCN(CCO)CCCCCCCC(=O)OC/C=C\CCCCCC` [Compound 139, Di((Z)-non-2-en-1-yl) 8,8′-((2-hydroxyethyl)azanediyl)dioctanoate], the “Fold increase in sC5b-9 levels versus saline” value (shortened to “Fold increase”) in the data set on sC5b-9 amounted to 0.73. In addition, the “EE (%)” value in data set [1] is reported as 78.2%. Also, in data set [2] (Table 1A), the PDI is listed as 0.54 and the “Size (nm)” value is 174.0 nm. Further, in the data set on luciferase (Luc) mRNA [3], the “Total Flux Femur” value is recorded as 5.12E+04, the “Total Flux Liver” value was determined as 8.27E+05, the “Total Flux Lung” value is reported as 5.26E+04 and the “Total Flux Spleen” value turned out to be 2.10E+06. Further, in the data set with luciferase (Luc) mRNA [4], the “Total Flux 3 hours” value was 3.50E+07, the “Total Flux 6 hours” value came to 1.17E+07 and the “Total Flux 24 hours” value is reported as 5.89E+05. For the same molecule, in the data set with IL-6, IP-10, the “Cytokine induction IL-6” value is 23.57 and the “Cytokine induction IP-10” value came out at 153.36. Besides, in data set [5], the pKa is listed as 7.04.

As to `CN(Cc1cnc2nc(N)nc(N)c2n1)c1ccc(C(=O)N[C@@H](CCC(=O)O)C(=O)O)cc1` [Methotrexate, methotrexate], in the data set with hEPO mRNA, the “effect of pretreatment on hEPO protein expression” value was “did not confer any particular beneficial effect”.

For `CCCCCCCCCOC(=O)CCCCCCCN(CCCCCCCC(=O)OC(CCCCCCCC)CCCCCCCC)CCOC(C)=O` [Compound 9, Heptadecan-9-yl 8-((2-acetoxyethyl)(8-(nonyloxy)-8-oxooctyl)amino) octanoate], in the data set with sC5b-9, the “Fold increase” value was 0.92. In the data set on sC5b-9 (in words), the “sC5b-9 levels relative to saline” value is “slightly decrease”. For the same molecule, the “EE (%)” value in data set [1] was 75.7%. In addition, in data set [2] (Table 1A), the PDI was found to be 0.12 and the “Size (nm)” value came to 68.5 nm. Also, the “Flux in the spleen” value with luciferase (Luc) mRNA [3] (i.v., in words) is “lowest”. Besides, in the data set with luciferase (Luc) mRNA [3], the “Total Flux Femur” value amounted to 2.57E+04, the “Total Flux Liver” value turned out to be 4.30E+05, the “Total Flux Lung” value is listed as 2.56E+04 and the “Total Flux Spleen” value was 5.51E+04. In the data set on luciferase (Luc) mRNA [4], the “Total Flux 3 hours” value worked out at 1.43E+08, the “Total Flux 6 hours” value came to 3.46E+06, the “Total Flux 24 hours” value is 1.01E+06 and the “flux at all timepoints measured” value is “significantly lower flux”. Also, the IL-6 induction result in the data set with IL-6, IP-10 (i.v., in words) is “highest”. In the data set with IL-6, IP-10, the “Cytokine induction IL-6” value is 317.45 and the “Cytokine induction IP-10” value is recorded as 366.53. In addition, the pKa in [5] amounted to 4.87.

Take `CCCCCCCCC(CCCCCCCC)OC(=O)CCCCCCCN(CCO)CCCCCCCC(=O)O` [Compound 166, 8-((8-(Heptadecan-9-yloxy)-8-oxooctyl)(2-hydroxyethyl)amino)octanoic acid]: the Proposed biotransformation entry (in the data set on human hepatocytes (Compound 18 (10 μM) with human hepatocytes (1 million cells/mL)); in data set [7] (Compound 18 (10 μM) with human plasma (29.0 mg protein/incubation))) was “Ester hydrolysis” each time. Further, the Detection in incubation entry (in the data set with human hepatocytes (60 min); in the data set on human hepatocytes (120 min); in the data set with human hepatocytes (240 min); in [7] (30 min); in data set [7] (60 min); in [7] (90 min)) was “+” throughout. Moreover, in data set [6], the “disappearance from mouse liver tissue” value is recorded as “rapid clearance”.

Take `CCCCCCCCC(CC)OC(=O)CCCCCCCN(CCCCCCCC(=O)OC(CCCCCCCC)CCCCCCCC)CCCNc1c(NC)c(=O)c1=O` (centres unmarked) [Compound 301, Heptadecan-9-yl 8-((3-((2-(methylamino)-3,4-dioxocyclobut-1-en-1-yl)amino)propyl)(8-oxo-8-(undecan-3-yloxy)octyl)amino)octanoate]: the “Clinical Observations” value in [8] is “signs of decreased activity”. Besides, the “% EE” value in data set [1] (N/P 3 (Table 43)) is reported as 86%; in data set [1] (N/P 5.8 (Table 43)), 96%. Besides, the Diameter in [2] (N/P 3 (Table 43)) came out at 68 nm; in data set [2] (N/P 5.8 (Table 43)) it was 69 nm. Further, the PDI came out at 0.09 in [2] (N/P 3 (Table 43)) and 0.24 in [2] (N/P 5.8 (Table 43)).

In the case of `CCCCCCCCCCCOC(=O)CCCCCN(CCO)CCCCCC(=O)OCCCCCCCCCCC` [Compound 141, Diundecyl 6,6′-((2-hydroxyethyl)azanediyl)dihexanoate], the “Fold increase” value in the data set on sC5b-9 is 1.81. Also, the “EE (%)” value in data set [1] came to 94.1%. For the same molecule, in data set [2] (Table 1A), the PDI is given as 0.99 and the “Size (nm)” value came out at 91.3 nm. Moreover, in the data set with luciferase (Luc) mRNA [3] (i.v., in words), the “Flux in the liver” value is reported as “lowest” and the “Flux in the spleen” value was “lowest”. In the data set with luciferase (Luc) mRNA [3], the “Total Flux Femur” value is reported as 2.86E+04, the “Total Flux Liver” value is on record as 1.59E+05, the “Total Flux Lung” value is on record as 3.85E+04 and the “Total Flux Spleen” value stood at 6.29E+04. In the data set with luciferase (Luc) mRNA [4], the “Total Flux 6 hours” value was 1.21E+06, the “Total Flux 24 hours” value was 3.49E+05 and the “flux at all timepoints measured” value was “significantly lower flux”. Further, in the data set with IL-6, IP-10, the “Cytokine induction IL-6” value turned out to be 327.15 and the “Cytokine induction IP-10” value is 1072.04. For the same molecule, the pKa in [5] worked out at 7.47.
